Test results: patent US20260078133
Where two headings read alike, the source gives them in different places.

Conditions: ester bond, 18-membered ring, DCM

CCn1c(-c2cc(N3CCN(C(=O)OCc4ccccc4)CC3)cnc2[C@H](C)OC)c2c3cc(ccc31)N1CCO[C@@H](C[C@H](NC(=O)OC(C)(C)C)C(=O)N3N[C@H](C(=O)OCC(C)(C)C2)C2CC3C2)C1
ring closure, isolated yield (from CCn1c(-c2cc(N3CCN(C(=O)OCc4ccccc4)CC3)cnc2[C@H](C)OC)c(CC(C)(C)CO)c2cc(N3CCO[C@@H](C[C@H](NC(=O)OC(C)(C)C)C(=O)N4N[C@H](C(=O)O)C5CC4C5)C3)ccc21, PyBOP/DMAP, 9.8 mM, 35.0 °C, 0.5 h): 16%

CCn1c(-c2cccnc2[C@H](C)OC)c2c3cc(ccc31)N1CCO[C@@H](C[C@H](NC(=O)OC(C)(C)C)C(=O)N3N[C@H](C(=O)OCC(C)(C)C2)C2CC3C2)C1
ring closure, isolated yield (from CCn1c(-c2cccnc2[C@H](C)OC)c(CC(C)(C)CO)c2cc(N3CCO[C@@H](C[C@H](NC(=O)OC(C)(C)C)C(=O)N4N[C@H](C(=O)O)C5CC4C5)C3)ccc21, PyBOP/DMAP, 2.6 mM, 16.0 h): 96.2%

CCn1c(-c2cc(N3CCN(C(=O)OCc4ccccc4)CC3)cnc2[C@H](C)OC)c2c3cc(ccc31)-c1csc(n1)C[C@H](NC(=O)OC(C)(C)C)C(=O)N(C)NCC(=O)OCC(C)(C)C2
ring closure, isolated yield (from CCn1c(-c2cc(N3CCN(C(=O)OCc4ccccc4)CC3)cnc2[C@H](C)OC)c(CC(C)(C)CO)c2cc(-c3csc(C[C@H](NC(=O)OC(C)(C)C)C(=O)N(C)NCC(=O)O)n3)ccc21, EDCI/HOBT/DIEA, 4.3 mM, 16.0 h): 38.2%

CCn1c(-c2cc(N3CCN(C4CC4)CC3)cnc2[C@H](C)OC)c2c3cc(ccc31)-c1csc(n1)C[C@H](NC(=O)OC(C)(C)C)C(=O)N(C)NCC(=O)OCC(C)(C)C2
ring closure, isolated yield (from CCn1c(-c2cc(N3CCN(C4CC4)CC3)cnc2[C@H](C)OC)c(CC(C)(C)CO)c2cc(-c3csc(C[C@H](NC(=O)OC(C)(C)C)C(=O)N(C)NCC(=O)O)n3)ccc21, PyBOP/DMAP, 5.9 mM, 0.0 °C, 1.0 h): 27%

CCn1c(-c2cc(N3CCN(C(=O)OCc4ccccc4)CC3)cnc2[C@H](C)OC)c2c3cc(ccc31)-c1csc(n1)C[C@H](NC(=O)OC(C)(C)C)C(=O)N1N[C@@H](C(=O)OCC(C)(C)C2)C2CC1C2
ring closure, isolated yield (from CCn1c(-c2cc(N3CCN(C(=O)OCc4ccccc4)CC3)cnc2[C@H](C)OC)c(CC(C)(C)CO)c2cc(-c3csc(C[C@H](NC(=O)OC(C)(C)C)C(=O)N4N[C@@H](C(=O)O)C5CC4C5)n3)ccc21, EDCI/HOBT/DIEA, 5.2 mM, 35.0 °C, 16.0 h): 49%

CCn1c(-c2cc(N3CCN(C)CC3)cnc2[C@H](C)OC)c2c3cc(ccc31)-c1csc(n1)C[C@H](NC(=O)OC(C)(C)C)C(=O)N(C)NCC(=O)OCC(C)(C)C2
ring closure, isolated yield (from CCn1c(-c2cc(N3CCN(C)CC3)cnc2[C@H](C)OC)c(CC(C)(C)CO)c2cc(-c3csc(C[C@H](NC(=O)OC(C)(C)C)C(=O)N(C)NCC(=O)O)n3)ccc21, PyBOP/DMAP, 0.8 mM, 0.0 °C, 1.0 h): 42%

CCn1c(-c2cc(N3CCN(C)CC3)cnc2[C@H](C)OC)c2c3cc(ccc31)-c1csc(n1)C[C@H](NC(=O)OC(C)(C)C)C(=O)N1N[C@H](C(=O)OCC(C)(C)C2)C2CC1C2
ring closure, isolated yield (from CCn1c(-c2cc(N3CCN(C)CC3)cnc2[C@H](C)OC)c(CC(C)(C)CO)c2cc(-c3csc(C[C@H](NC(=O)OC(C)(C)C)C(=O)N4N[C@H](C(=O)O)C5CC4C5)n3)ccc21, PyBOP/DMAP, 5.7 mM, 5.0 h): 48.8%

tert-butyl ((1^2S,12S)-2^1-ethyl-2^2-(2-((S)-1-methoxyethyl)pyridin-3-yl)-4,4,10-trimethyl-7,11-dioxo-2^1H-6-oxa-9,10-diaza-1(4,2)-morpholina-2(5,3)-indolacyclotridecaphane-12-yl)carbamate
ring closure, isolated yield (EDCI/HOBT/DIEA, 6.5 mM): 44%

C=C[C@@H]1CCN2N[C@@H]1C(=O)OCC(C)(C)Cc1c(-c3cc(N4CCN(C(=O)OCc5ccccc5)CC4)cnc3[C@H](C)OC)n(CC)c3ccc(cc13)-c1csc(n1)C[C@H](NC(=O)OC(C)(C)C)C2=O
ring closure, isolated yield (from C=C[C@@H]1CCN(C(=O)[C@H](Cc2nc(-c3ccc4c(c3)c(CC(C)(C)CO)c(-c3cc(N5CCN(C(=O)OCc6ccccc6)CC5)cnc3[C@H](C)OC)n4CC)cs2)NC(=O)OC(C)(C)C)N[C@@H]1C(=O)O, EDCI/HOBT/DIEA, 10.0 mM, 16.0 h): 36.7%

CCn1c(-c2cc(N3CCN(C4CC4)CC3)cnc2[C@H](C)OC)c2c3cc(ccc31)-c1nnc(o1)C[C@H](NC(=O)OCc1ccccc1)C(=O)N1N[C@H](C(=O)OCC(C)(C)C2)C2CC1C2
ring closure, isolated yield (from CCn1c(-c2cc(N3CCN(C4CC4)CC3)cnc2[C@H](C)OC)c(CC(C)(C)CO)c2cc(-c3nnc(C[C@H](NC(=O)OCc4ccccc4)C(=O)N4N[C@H](C(=O)O)C5CC4C5)o3)ccc21, PyBOP/DMAP, 6.6 mM, 16.0 h, 2 steps): 29%

benzyl-4-(5-((64S,4S)-4-((tert-butoxycarbonyl) amino)-11-ethyl-10,10-dimethyl-5,7-dioxo-11H-8-oxa-62,63-diaza-1 (5,3)-indola-6(2,4)-bicyclo[3.1.1]heptana-2(1,3)-benzenacycloundecaphane-12-yl)-6-((S)-1-methoxyethyl)pyridin-3-yl)piperazine-1-carboxylate
ring closure, isolated yield (EDCI/HOBT/DIEA, 6.0 mM): 27%
